This is an account of results in patent US20260008762A1, “CANNABINOID ACIDS CRYSTALLINE FORMS, METHODS OF PRODUCING, AND USES THEREOF” (priority 2022, published 2026).

The conditions of series [1]: compared with THCa under similar conditions; cited from earlier work.
The target in series [2] is SARS-CoV-2 spike protein S1 C-terminal domain (Severe acute respiratory syndrome coronavirus 2, UniProt P0DTC2). As to conditions: can inhibit the virus' ability to enter new host cells; cited from earlier work.
Series [3] can be described thus: Thermogravimetric analysis (TGA) of crystalline form. Type of series: physicochemical. The conditions noted are these: crystalline single component form, dry nitrogen flow. As to the method:
Thermal gravimetric analysis (TGA) was carried out using a TA instruments 2910 under dry nitrogen flow (30 mL/min for both the furnace and the balance). For a typical experiment, 5-10 mg of solid material was placed into the pan and was allowed to equilibrate at room temperature under nitrogen for approximately 5 minutes prior to the start of each experiment to ensure a stable baseline. A heating rate of 1° C./min or 5° C./min was utilized.

Structures are written as SMILES.

On to `C=C(C)[C@@H]1CCC(C)=C[C@H]1c1c(O)cc(CCCCC)c(C(=O)O)c1O` [CBDa, cannabidiolic acid], for which, in series [1], the rate of decarboxylation result is “decarboxylates at a faster rate than THCa”. The “binding to SARS-CoV-2 spike protein S1 C-terminal domain” value in series [2] is given as “found to bind to the SARS-CoV-2 spike protein S1 C-terminal domain”. Also, in series [3], the TGA degradation onset entry is “about 150 °C”.
Regarding `CCCCCc1cc(O)c(C/C=C(\C)CCC=C(C)C)c(O)c1C(=O)O` [CBGa, cannabigerolic acid], the “binding to SARS-CoV-2 spike protein S1 C-terminal domain” value in series [2] was “found to bind to the SARS-CoV-2 spike protein S1 C-terminal domain”. For the same compound, the TGA degradation onset result in series [3] is “about 115 °C”.
In the case of `CCCCCc1cc2c(c(O)c1C(=O)O)[C@@H]1C=C(C)CC[C@H]1C(C)(C)O2` [THCa, tetrahydrocannabinolic acid], in series [3], the TGA degradation onset result was “about 125 °C”.
